Measurements: patent US8455240B2, “Use of thermophilic sulphate-reducing archaea for the implementation of a process for the degradation of hydrocarbons” (Institut de Recherche pour le Development (I.R.D.), priority 2005, dated 2013)
Where “and” joins values, the source holds several entries; their conditions need not be identical. Equal values may be shown once. Marks after values point to notes of the source that are not given here.

Key:
[1] = system: Archaeoglobus fulgidus DSM 4304; experiment: Monitoring of thiosulphate during the degradation of fatty acids by A. fulgidus; format: cell-based; conditions: E1/E2 replicates; for thiosulphate, time 0: time 0 (Jul. 4, 2005), butyrate, valerate 5 mM, others 2 mM
Method: (§1) The thiosulphate and sulphate assays are carried out by ion chromatography.
(§2) The analyses are carried out with a chromatograph (Compact IC 761, Metrohm) equipped with: • A […] ion-exchange column (Metrosep A SUPP 1-250 (6.1005.300)), size 4.6*250 mm; • The eluent used is Na2CO3 at a concentration of 3 mmol/l, at a flow rate of 1 to 2.5 ml/min; ((→the flow rate varies during the analysis)) • A sample processor (Metrohm 838); • A conductimeter; • A computer where the results are recorded, integrated and analyzed by software (761 Compact IC, Metrohm). III.3.2. Operating Method
(§3) The operating conditions are such that the temperature is 20° C. and the pressure is 5 MPa. The samples to be analyzed are filtered. The injection volume is 20 μl. The detection is of conductimetric electrochemical type with chemical suppression allowing elution gradients.
(§4) Monitoring of thiosulphate during the degradation of fatty acids by A. fulgidus and by L-3

strain L-3 [2] = experiment: Monitoring of thiosulphate during the degradation of fatty acids by L-3; format: cell-based, Archaeoglobus fulgidus CNCM I-3465 (strain L-3); conditions: time 0 (Feb. 5, 2005); E1/E2 replicates
Method: as §1, §2, §3, §4

Archaeoglobus fulgidus = experiment: Screening for hydrocarbon degradation, A. fulgidus (sulphide production, Cord-Ruwish); format: cell-based
Method: (§5) Experimentally, 4 ml of Cord-Ruwish reagent comprising 50 mmol/l of HCl and 5 mmol/l of CuSO4 are added to 0.1 ml of sample. Copper sulphate (CuSO4) by reacting with hydrogen sulphide (H2S), forms a copper sulphide precipitate (CuS) after the reaction: CuSO4+H2S→CuS+H2SO4
(§6) According to this method, the CuS is assayed by spectrophotometry at 480 nm. The readings are carried out against a blank constituted by 4 ml of Cord-Ruwish reagent.
(§7) The study of the hydrocarbon degradation abilities is an experiment which requires a particularly long incubation. Thus, it was carried out in Bellco tubes sealed with thick rubber stoppers.
(§8) For these experiments, tubes containing 10 ml of culture medium without substrate, are 10% inoculated, then the hydrocarbon is introduced by injection through the stopper.
(§9) The hydrocarbons chosen are model molecules belonging to the different classes of hydrocarbons, namely: • hexadecane (CH3(CH2)14CH3, C16), a saturated linear aliphatic hydrocarbon; • hexadecene (CH3(CH2)13CHCH2, C16:1), an unsaturated linear aliphatic hydrocarbon of biogenic origin; • dibenzothiophene (DBT, C12H8S), a sulphur-containing aromatic hydrocarbon.
(§10) The aliphatic hydrocarbons (C16; C16:1) are added to the corresponding tubes, at a rate of 0.04 ml/10 ml of culture medium. The aromatic hydrocarbons (DBT) are solubilized in 2,2,4,4,6,8,8-heptamethylnonane (HMN, C16H34) at a rate of 20 mg/ml of HMN, and 0.75 ml of this solution is injected into 10 ml of culture medium.
(§11) 3 tubes were produced for each test and control. The growth of the strains was monitored indirectly by the production of sulphide.
(§12) A subculture was carried out starting from the preceding experiment on naphthalene, DBT solubilized as previously in HMN, and on HMN alone, for the two strains studied.

strain L-3 [3] = experiment: Screening for hydrocarbon degradation, strain L-3 (sulphide production, Cord-Ruwish); format: cell-based, Archaeoglobus fulgidus CNCM I-3465 (strain L-3); conditions: 0 d; aromatics solubilized in HMN
Method: as §5, §6, §7, §8, §9, §10, §11, §12

strain L-3 [4] = experiment: Sources of carbon and energy used by the strain L-3; format: cell-based, Archaeoglobus fulgidus CNCM I-3465 (strain L-3); conditions: thiosulphate as electron acceptor; for H2S (480 nm): unit from b126
Method: as §5, §6
(§13) The analysis and quantification of the metabolites are carried out by HPLC by measuring the disappearance of the substrate and the appearance of different metabolism products.
The study of the growth of the strain L-3 in the presence of different sources of carbon and energy was carried out with thiosulphate as an electron acceptor. The monitoring was carried out by estimation of the cell biomass (OD 580 nm), by assay of the sulphide production (Cord-Ruwish). The results were confirmed by HPLC analyses, and completed in certain cases by a CO2 assay.

[5] = system: Archaeoglobus fulgidus (DSM 4304); experiment: Degradation of different substrates by A. fulgidus as a function of the electron acceptor; format: cell-based; conditions: for total H2S: unit from b116
Method: as §5, §6, §13
(§14) The study of the degradation abilities of different substrates of the strain L-3 was based on a comparison with the collection strain, Archaeoglobus fulgidus (DSM 4304). The degradation of the substrates, by the two strains was monitored by a measurement of the cell biomass at 580 nm, a sulphide assay produced according to the Cord-Ruwish method, a study of the degradation metabolites by HPLC, completed by a CO2 assay with a GPC-Katharometer.
(§15) Two series of tests were prepared, one with thiosulphate, the other with sulphate as an electron acceptor.

strain L-3 [6] = experiment: Degradation of different substrates by the strain L-3 as a function of the electron acceptor; format: cell-based, Archaeoglobus fulgidus CNCM I-3465 (strain L-3); design: total H2S: unit not given here
Method: as §5, §6, §13, §14, §15

[7] = thiosulphate as electron acceptor
[8] = thiosulphate or sulphate as electron acceptor

Q: For `CCCCCCCCCCCCCCCCCC(=O)O` [stearate], which “thiosulphate, end of May 2005” value ([1]; listed as C18 fatty acid) is on record?
A: 10.55 mM and 7.05 mM

Q: And the “thiosulphate, time 0” value (strain L-3 [2])?
A: 14.64* mM

Q: With `CCCCCCCCCCCCCCCC` [C16, hexadecane] as the compound, how does the “sulphide production (OD 480) 0 d” value (Archaeoglobus fulgidus; 0 d, aromatics solubilized in HMN) read?
A: 0.7 mM and 0.8 mM and 0.9 mM

Q: And the “sulphide production (OD 480) 70 d” value (Archaeoglobus fulgidus; 70 d)?
A: 1 mM and 0.5 mM and 0.8 mM

Q: What about the “sulphide production (OD 480) 0 d” value (strain L-3 [3]) of the same compound?
A: 0.6 mM and 0.5 mM and 0.9 mM

Q: For `CCCCCCCCC(=O)O` [nonanoate], which “thiosulphate, end of May 2005” value ([1]; listed as C9 fatty acid) is on record?
A: 7.65 mM and 10.52 mM

Q: How did the “OD 580 nm Initial” value (strain L-3 [4]) turn out when Starch was run?
A: 0.8834 and 0.8614

Q: What about the “H2S (480 nm)” value (strain L-3 [4]) of the same compound?
A: 0.8 mM and 0.7 mM

Q: `CCCC(=O)O` [butyrate] was tested. Which “thiosulphate, end of May 2005” value [1] did it give?
A: 9.29 mM

Q: What about the “thiosulphate, time 0” value [1] of the same compound?
A: 12.51 mM

Q: What about the “thiosulphate, time 0” value (strain L-3 [2]) of the same compound?
A: 15.45 mM

Q: `O=C(O)/C=C/C(=O)O` [Fumarate] was tested. Which “final OD 580” value ([5]; sulphate as electron acceptor) did it give?
A: 0.1122 and 0.14

Q: What about the “initial OD 580” value ([5]; sulphate as electron acceptor) of the same compound?
A: 0.0759 and 0.085

Q: What about the “total H2S” value ([5]; sulphate as electron acceptor) of the same compound?
A: 2.4 mM and 3.1 mM

Q: What about the “total H2S” value ([5]; sulphate as electron acceptor, listed as fumarate) of the same compound?
A: ≤ 3.1 mM

Q: What about the “final OD 580” value [5, 7] of the same compound?
A: 0.1399 and 0.1535

Q: What about the “initial OD 580” value [5, 7] of the same compound?
A: 0.1085 and 0.117

Q: What about the “total H2S” value [5, 7] of the same compound?
A: 5.1 mM and 6.5 mM

Q: What about the “total H2S” value ([5]; thiosulphate as electron acceptor, listed as fumarate) of the same compound?
A: 6.5 mM

Q: What about the “ability of Archaeoglobus fulgidus to oxidize the substrate” value [5, 8] of the same compound?
A: capable of oxidizing

Q: And the “final OD 580” value (strain L-3 [6]; sulphate as electron acceptor)?
A: 0.1085 and 0.0899

Q: What about the “initial OD 580” value (strain L-3 [6]; sulphate as electron acceptor) of the same compound?
A: 0.0606 and 0.062

Q: What about the “total H2S” value (strain L-3 [6]; sulphate as electron acceptor) of the same compound?
A: 2.5 and 3.3

Q: And the “final OD 580” value (strain L-3 [6]; [7])?
A: 0.1431 and 0.1137

Q: And the “initial OD 580” value (strain L-3 [6]; [7])?
A: 0.1083 and 0.0796

Q: What about the “total H2S” value (strain L-3 [6]; [7]) of the same compound?
A: 3.2 and 2.5

Q: And the “ability of the strain L-3 to degrade the substrate” value (strain L-3 [6]; [8])?
A: capable of degrading

Q: For `CCCCCCCCCCCCCCCC(=O)O` [palmitate], which “thiosulphate, end of May 2005” value [1] is on record?
A: 9.12 mM

Q: And the “thiosulphate, time 0” value [1]?
A: 11.54 mM

Q: What about the “thiosulphate, time 0” value (strain L-3 [2]) of the same compound?
A: 15.52 mM

Q: `O=C(O)CCC(=O)O` [Succinate] was tested. Which “OD 580 nm Final” value (strain L-3 [4]) did it give?
A: 0.0659 and 0.0672

Q: What about the “OD 580 nm Initial” value (strain L-3 [4]) of the same compound?
A: 0.0845 and 0.0791

Q: And the “H2S (480 nm)” value (strain L-3 [4])?
A: 0.3 mM

Q: `CCCCC(=O)O` [valerate] was tested. Which “thiosulphate, end of May 2005” value ([1]; listed as C5 fatty acid) did it give?
A: 11.86 mM and 9.39 mM

Q: And the “thiosulphate, time 0” value (strain L-3 [2])?
A: 13.95* mM
